# Measured values published in patent publication US20220072075A1, “METHOD FOR PRODUCING NATURAL ANTIMICROBIAL SUBSTANCE AND ANTIMICROBIAL COMPOSITION COMPRISING NATURAL ANTIMICROBIAL SUBSTANCE PRODUCED BY THE SAME” (MY CO.,LTD, priority 2020, published 2022).
# Test system: Staphylococcus aureus
# Experiment: Antimicrobial Efficacy Test 4: elimination of Staphylococcus aureus, identification using a mass spectrometer
# Type: cell-based
# Details: substance added as named (70% ethanol, Febreze)
# Method: In the present disclosure, “natural antimicrobial substance (n %)” means that the natural antimicrobial substance of the present disclosure is dissolved in multi-photocatalyst water or hypochlorous acid water (pH 5) at a concentration of n %. FIGS. 4 to 9 show the data obtained by identifying Staphylococcus aureus and Staphylococcus aureus plus specific substance using a mass spectrometer.
smiles,measurement,value
"CCO [70% ethanol, ethanol]",elimination of Staphylococcus aureus (mass spectrum / bacterial identification),not eliminated
